According to patent US10413505B1, “Pharmaceutical compositions and methods of using the same” (priority 2017, dated 2019):
Structures can show the parent of a compound that is named as a salt. Where two headings read alike, the source gives them in different places.

Test system: subjects undergoing diagnostic procedures and surgeries on or through the mucous membranes of the nasal cavities
From the text: Example 8 was a randomized, prospective, double-blind, multicenter, single-dose, placebo and dose-controlled, parallel-group study to evaluate the safety of the 4% and 8% cocaine hydrochloride pharmaceutical compositions as described in Example 4 used as a local anesthetic for diagnostic procedures and surgeries on or through the mucous membranes of the nasal cavities (e.g., nasal/sinus endoscopy, sinusotomy, fracture nasal turbinate(s), lysis intranasal synechia, insertion of nasal septal prosthesis, intranasal biopsy, excision of nasal polyps, excision turbinate(s), removal of an intranasal foreign body, septoplasty, or sinus debridement). […] The study consisted of a screening period within 14 days of a diagnostic procedure or surgery; a treatment period on the day of the diagnostic procedure or surgery (Day 1); and a follow-up visit (Day 8).
Two saturated pledgets were placed into each nasal cavity and up against the septum for 20 minutes. After 20 minutes the pledgets were removed from the subjects.
To address the potential for the impact of body weight on efficacy and safety, the study conducted the following additional analyses: • Analysis of efficacy (primary endpoint) for 2 subgroups of low weight subjects: <50 kg and <60 kg (see Table 53) • Analysis of safety (AEs) for 2 subgroups of low weight subjects: <50 kg and <60 kg (see Table 54) • Analysis of safety (AEs) for 2 subgroups of subjects based on dose determined on a mg/kg basis (regardless of 4% or 8% dose): ≤3 mg/kg or >3 mg/kg) (Table 55) Note: There is overlap between the body weight groups examined because the <60 kg group has no lower limit of weight.

COC(=O)[C@H]1[C@@H](OC(=O)c2ccccc2)C[C@@H]2CC[C@H]1N2C [Cocaine HCl]
Adverse events: Anxiety (>3% mg/kg): 2 (0.8) n (%)
Adverse events: Dermatitis allergic (>3% mg/kg): 1 (0.4) n (%)
Adverse events: Dizziness (>3% mg/kg): 1 (0.4) n (%)
Adverse events: Dysphonia (>3% mg/kg): 0 n (%)
Adverse events: Epistaxis (>3% mg/kg): 2 (0.8) n (%)
Adverse events: Eye disorders (>3% mg/kg): 1 (0.4) n (%)
Adverse events: Facial pain (>3% mg/kg): 1 (0.4) n (%)
Adverse events: Fatigue (>3% mg/kg): 0 n (%)
Adverse events: Foreign body sensation in eyes (>3% mg/kg): 1 (0.4) n (%)
Adverse events: Gastrointestinal disorders (>3% mg/kg): 1 (0.4) n (%)
Adverse events: General disorders and administration site conditions (>3% mg/kg): 1 (0.4) n (%)
Adverse events: Headache (>3% mg/kg): 4 (1.6) n (%)
Adverse events: Hypertension (>3% mg/kg): 0 n (%)
Adverse events: Injury, poisoning and procedural complications (>3% mg/kg): 1 (0.4) n (%)
Adverse events: Lip swelling (>3% mg/kg): 1 (0.4) n (%)
Adverse events: Masculoskeletal and connective tissue disorders (>3% mg/kg): 1 (0.4) n (%)
Adverse events: Medication error (>3% mg/kg): 1 (0.4) n (%)
Adverse events: Nasal congestion (>3% mg/kg): 1 (0.4) n (%)
Adverse events: Nausea (>3% mg/kg): 0 n (%)
Adverse events: Neck pain (>3% mg/kg): 1 (0.4) n (%)
Adverse events: Nervous system disorders (>3% mg/kg): 5 (2.0) n (%)
Adverse events: Psychiatric disorders (>3% mg/kg): 2 (0.8) n (%)
Adverse events: Respiratory, thoracic and mediastinal disorders (>3% mg/kg): 3 (1.2) n (%)
Adverse events: Rhinorrhea (>3% mg/kg): 0 n (%)
Adverse events: Skin and subcutaneous tissue disorders (>3% mg/kg): 2 (0.8) n (%)
Adverse events: Sneezing (>3% mg/kg): 0 n (%)
Adverse events: Upper-airway cough syndrome (>3% mg/kg): 0 n (%)
Adverse events: Vascular disorders (>3% mg/kg): 0 n (%)
Adverse events: Vision blurred (>3% mg/kg): 0 n (%)
Any AE (>3% mg/kg): 14 (5.7) n (%)
Adverse events: Cold sweat (>3% mg/kg, under General disorders and administration site conditions): 0 n (%)
Adverse events: Cold sweat (>3% mg/kg, under Skin and subcutaneous tissue disorders): 1 (0.4) n (%)
Adverse events: Anxiety (≤3 mg/kg): 0 n (%)
Adverse events: Dermatitis allergic (≤3 mg/kg): 0 n (%)
Adverse events: Dizziness (≤3 mg/kg): 1 (0.3) n (%)
Adverse events: Dysphonia (≤3 mg/kg): 1 (0.3) n (%)
Adverse events: Epistaxis (≤3 mg/kg): 3 (1.0) n (%)
Adverse events: Eye disorders (≤3 mg/kg): 1 (0.3) n (%)
Adverse events: Facial pain (≤3 mg/kg): 0 n (%)
Adverse events: Fatigue (≤3 mg/kg): 1 (0.3) n (%)
Adverse events: Foreign body sensation in eyes (≤3 mg/kg): 0 n (%)
Adverse events: Gastrointestinal disorders (≤3 mg/kg): 1 (0.3) n (%)
Adverse events: General disorders and administration site conditions (≤3 mg/kg): 2 (0.7) n (%)
Adverse events: Headache (≤3 mg/kg): 7 (2.3) n (%)
Adverse events: Hypertension (≤3 mg/kg): 1 (0.3) n (%)
Adverse events: Injury, poisoning and procedural complications (≤3 mg/kg): 0 n (%)
Adverse events: Lip swelling (≤3 mg/kg): 0 n (%)
Adverse events: Masculoskeletal and connective tissue disorders (≤3 mg/kg): 0 n (%)
Adverse events: Medication error (≤3 mg/kg): 0 n (%)
Adverse events: Nasal congestion (≤3 mg/kg): 0 n (%)
Adverse events: Nausea (≤3 mg/kg): 1 (0.3) n (%)
Adverse events: Neck pain (≤3 mg/kg): 0 n (%)
Adverse events: Nervous system disorders (≤3 mg/kg): 7 (2.3) n (%)
Adverse events: Psychiatric disorders (≤3 mg/kg): 0 n (%)
Adverse events: Respiratory, thoracic and mediastinal disorders (≤3 mg/kg): 6 (2.0) n (%)
Adverse events: Rhinorrhea (≤3 mg/kg): 1 (0.3) n (%)
Adverse events: Skin and subcutaneous tissue disorders (≤3 mg/kg): 0 n (%)
Adverse events: Sneezing (≤3 mg/kg): 1 (0.3) n (%)
Adverse events: Upper-airway cough syndrome (≤3 mg/kg): 0 n (%)
Adverse events: Vascular disorders (≤3 mg/kg): 1 (0.3) n (%)
Adverse events: Vision blurred (≤3 mg/kg): 1 (0.3) n (%)
Any AE (≤3 mg/kg): 13 (4.3) n (%)
Adverse events: Cold sweat (≤3 mg/kg, under General disorders and administration site conditions): 1 (0.3) n (%)
Adverse events: Cold sweat (≤3 mg/kg, under Skin and subcutaneous tissue disorders): 0 n (%)
